In US20060111395A1, “Aryl-and heteroaryl-substituted tetrahydroisoquinolines and use thereof to block reuptake of norepinephrine, dopamine and serotonin” (AMR Technology, Inc., priority 2004, published 2006):

Assays:
[1] = test system: dopamine transporter protein over the norepinephrine transporter protein; conditions: selectivity for DAT over NET; cited from earlier work
[2] = cited from earlier work

## CN1Cc2cc(-c3ccoc3)ccc2C(c2ccccc2)C1 (stereo not drawn)
other
  melting point: 188 to 189 °C (dec.)

## COC(=O)C(c1ccccc1)C1CCCCN1 (stereo not drawn) [Methylphenidate]
[1]
  DAT/NET Ki ratio: 0.1

## CN1Cc2c(N)cccc2C(c2ccccc2)C1 (stereo not drawn) [Nomofensine®]
[2]
  side effect of long term administration: fatal immune hemolytic anemia
